Source: patent publication US5250554A, “Benzimidazole derivatives useful as angiotensin II inhibitors” (Takeda Chemical Industries, Ltd., priority 1989, dated 1993)
Counter-ions that a name gives are not always drawn. Like-named read-outs stand apart in the source and are kept apart here.

Assays:
angiotensin II = settings: as reported; cited from earlier work
A-II receptor = molecular target: T1, A-II receptor (Bos taurus, UniProt P25104); assay: Inhibition of binding of angiotensin-II to angiotensin receptor (radioreceptor assay, 125I-A-II); set-up: species or system bovine (membrane fraction of bovine adrenal cortex); settings: for inhibition at 10 µM: read-out: Radioreceptor assay, inhibition of A-II binding, 1 × 10^-5 M; for inhibition at 1 µM: read-out: Radioreceptor assay, inhibition of A-II binding, 1 × 10^-6 M
T1 construct: An A-II receptor was prepared from the membrane fraction of bovine adrenal cortex; from tissue; host or cells: bovine adrenal cortex, membrane fraction
T1 sequence (P25104 1-359): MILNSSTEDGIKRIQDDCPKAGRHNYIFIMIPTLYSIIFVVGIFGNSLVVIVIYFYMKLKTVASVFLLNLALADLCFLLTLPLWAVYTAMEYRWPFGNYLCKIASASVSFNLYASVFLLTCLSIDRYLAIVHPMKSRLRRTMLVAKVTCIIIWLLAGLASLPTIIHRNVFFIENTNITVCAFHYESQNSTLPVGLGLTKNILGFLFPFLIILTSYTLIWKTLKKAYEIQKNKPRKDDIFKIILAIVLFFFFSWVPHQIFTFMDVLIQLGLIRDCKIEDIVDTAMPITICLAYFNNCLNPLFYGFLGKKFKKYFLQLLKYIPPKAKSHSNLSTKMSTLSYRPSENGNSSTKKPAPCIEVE
Protocol: Inhibition of binding of angiotensin-II to angiotensin receptor
An A-II receptor was prepared from the membrane fraction of bovine adrenal cortex.

pressor action of A-II = assay: Inhibitory effect on pressor action of A-II (oral drug, i.v. A-II 100 ng/kg); assay type: in vivo, Jcl:SD rats (9 week old, male); settings: Rattus norvegicus, po, rats, A-II 100 ng/kg i.v.; for inhibition in vivo at 3 mg/kg: 3 mg/kg p.o., read-out: Pressor response to A II (p.o.), 3 mg/kg (percent inhibition); for inhibition in vivo at 30 mg/kg: 30 mg/kg p.o., read-out: Pressor response to A II (p.o.), 30 mg/kg (percent inhibition)
Description: Inhibitory effect of the compound of this invention on pressor action of A-II
Jcl:SD rats (9 week old, male) were used. On the day prior to that of the experiment, these animals were applied with cannulation into the femoral artery and vein under anesthesia with pentobarbital Na. The animals were fasted but allowed free access to drinking water until the experiment was started. On the day of conducting the experiment, the artery cannula was connected with a blood-pressure transducer, and the average blood pressure was recorded by means of polygraph. […] The drugs were orally administered, and then, at each point of the measurement, A-II was administered intravenously, and the pressor action was similarly measured. By comparing the pressor action before and after administration of the drug, the percent inhibition by the drug on A-II-induced pressor action was evaluated.

[1] = 1 × 10^-5 M, bovine adrenal cortex membrane, 125I-A-II, 1 h room temperature
[2] = 1 × 10^-6 M, bovine adrenal cortex membrane, 125I-A-II, 1 h room temperature

| inhibition at 10 µM (A-II receptor; [1]) | inhibition at 1 µM (A-II receptor; [2]) | Molecule | angiotensin II antagonism (angiotensin II) | inhibition at 10 µM (A-II receptor) | inhibition at 1 µM (A-II receptor) | inhibition in vivo at 3 mg/kg (pressor action of A-II) | inhibition in vivo at 30 mg/kg (pressor action of A-II) |
| --- | --- | --- | --- | --- | --- | --- | --- |
|  |  | [Sar^1, Ala^8 ]AII | potent angiotensin II antagonism |  |  |  |  |
|  |  | CCCCc1nc2cccc(COC)c2n1Cc1ccc(-c2ccccc2-c2nnn[nH]2)cc1 [Working Example 19, 2-butyl-7-methoxymethyl-1-[[2'-(1H-tetrazol-5-yl)biphenyl-4-yl]methyl]benzimidazole sodium salt] |  | 90% | 60% | 30 to 50% |  |
| 94% | 65% | CCCCc1nc2cccc(C(=O)OC(C)OC(=O)OC3CCCCC3)c2n1Cc1ccc(-c2ccccc2-c2nn[nH]n2)cc1 (centres unmarked) [Working Example 37] |  |  |  | > 70% | > 70% |
| 94% | 77% | CCCCc1nc2ccc(C(=O)OC)cc2n1Cc1ccc(-c2ccccc2-c2nnn[nH]2)cc1 [compound 49, Methyl 2-butyl-1-[[2'-(1H-tetrazol-5-yl)biphenyl-4-yl]methyl]benzimidazole-6-carboxylate, reference compound] |  |  |  | < 30% | < 30% |
| 61% | 6% | CCCCc1nc2c(C(=O)OC)cccc2n1Cc1ccc(-c2ccccc2-c2nn[nH]n2)cc1 [Reference Example 29, reference compound] |  |  |  |  | < 30% |
| 87% | 52% | CCCCc1nc2ccccc2n1Cc1ccc(-c2ccccc2-c2nnn[nH]2)cc1 [Reference Example 17, 2-Butyl-1-[[2'-(1H-tetrazol-5-yl)biphenyl-4-yl]methyl]benzimidazole, reference compound] |  |  |  | < 30% | < 30% |
|  |  | CNCC(=O)N[C@@H](CCCN=C(N)N)C(=O)N[C@H](C(=O)N[C@@H](Cc1ccc(O)cc1)C(=O)N[C@H](C(=O)N[C@@H](Cc1cnc[nH]1)C(=O)N1CCC[C@H]1C(=O)N[C@@H](C)C(=O)O)C(C)C)C(C)C [saralasin] | potent angiotensin II antagonism |  |  |  |  |
